Data on three molecules can be found in patent publication US20110275675A1, “Antimicrobial Dental Materials” (IVOCLAR VIVADENT AG, priority 2010, published 2011).

Series [1] is described as follows: Through-curing depth of light-curing composite filling material. It counts as physicochemical. The following applies: 3.0 or 5.0 wt.-%. As to the method:
A composite filling material with the following composition was prepared:
3.0 wt.-% or 5.0 wt.-% of the antimicrobial active ingredient of formula (Ia) was incorporated into the composite filling material. After 20 s exposure to light with a dental polymerization light (Bluephase®, Ivoclar Vivadent AG), the through-curing depth was determined. For comparison, the antimicrobial active ingredients triclosan and chlorhexidine diacetate were also incorporated into the composite material in a quantity of 3.0 wt.-% or 5.0 wt.-% and the through-curing depth determined (see Table 5 for results).

Series [2] can be described thus: Influence on radical polymerization: chemical hardening of Systemp.link. It counts as physicochemical. Conditions: 3.0 wt.-%. As to the method: 3.0 wt.-% triclosan or 3.0 wt.-% of the antimicrobial active ingredient of formula (Ia) was incorporated into the base paste of the commercially available composite-based temporary fixing cement Systemp.link (Ivoclar Vivadent AG), which hardens radically. The processing time (PT), setting time (ST) and Shore D hardness in the case of chemical hardening were then determined.

The next series relates to Streptococcus mutans. The series is described as follows: Agar plate zone of inhibition test. It counts as cell-based, S. mutans DSM20723. Conditions: 24 h at 37° C./5% CO2. The text has this: To determine the antimicrobial action of a temporary dental cement with the active ingredient of formula (Ia), 3.0 wt.-% of the active ingredient of formula (Ia) was incorporated into the commercially available cement Systemp.link (Ivoclar Vivadent AG). Round testpieces with a diameter of 10 mm and a thickness of 2 mm were then shaped into small plates with the corresponding material and then cured. Testpieces made of Systemp.link without active ingredient and also with 1.0 and 3.0 wt.-% triclosan served as reference. After this, the antimicrobial action on the bacterial strain Streptococcus mutans was studied. The agar plate zone of inhibition test was used for this.
Bacterial strain: S. mutans DSM20723 Cultivation medium: BHI broth
100 μl undiluted S. mutans culture solution was plated out onto agar plates. The testpieces were then placed on the agar plates. After 24 h storage at 37° C./5% CO2, the plates were assessed.

Series [3] can be described thus: Shore D hardness of temporary filling material (Fermit). The following applies: 0.2 or 0.5 wt.-%. It counts as physicochemical. As to the method: (§1) 0.2 wt.-% or 0.5 wt.-% of the antimicrobial active ingredient of formula (Ia) was incorporated into the commercially available composite-based temporary filling material Fermit (Ivoclar Vivadent AG). […] The Shore D hardness was then determined (see Table 4 for results).

A short description of series [4]: Hardening properties of composite-based temporary cement (Systemp.link). Conditions: 0.3 or 3.0 wt.-%. It counts as physicochemical. As to the method:
0.3 wt.-% or 3.0 wt.-% of the antimicrobial active ingredient of formula (Ia) was incorporated into the base paste of the commercially available composite-based temporary fixing cement Systemp.link (Ivoclar Vivadent AG). The processing time (PT), setting time (ST) and Shore D hardness were then determined.

Series [5] can be described thus: Hardening on exposure to dental polymerization light. Conditions: 20 s exposure to light (Bluephase); 0.2 or 0.5 wt.-% Ia in Fermit. It counts as physicochemical. As to the method: as §1
A short description of series [6]: Hardening properties of temporary cement based on polycarboxylate/zinc oxide (Systemp.cem). It counts as physicochemical. Conditions: 0.3 or 3.0 wt.-%. The procedure: 0.3 wt.-% or 3.0 wt.-% of the antimicrobial active ingredient of formula (Ia) was incorporated into the initiator paste of the commercially available temporary fixing cement based on polycarboxylate/zinc oxide Systemp.cem (Ivoclar Vivadent AG). The processing time (PT), setting time (ST) and Shore D hardness were then determined.

The mark [7] stands for this setting: 3.0 wt.-% active ingredient in cured Systemp.link small plates.

“Also recorded” adds a separate entry of the source.

Regarding `CC(=O)O.CC(=O)O.NC(=N\CCCCCC/N=C(N)/N=C(\N)Nc1ccc(Cl)cc1)/N=C(\N)Nc1ccc(Cl)cc1` [chlorhexidine diacetate], in series [1], the “Influence on the through-curing depth of the composite material” value (from here on “Influence on the through-curing depth”) is given as “dramatically reduced”.

For the molecule `Oc1cc(Cl)ccc1Oc1ccc(Cl)cc1Cl` [triclosan, 2,4,4′-trichloro-2′-hydroxydiphenylether], in series [2], the “Influence on the chemical hardening of Systemp.link” value is “completely inhibited”. Moreover, the “Formation of zones of inhibition” value in the series with Streptococcus mutans (1.0 wt.-% active ingredient in cured Systemp.link small plates) and in the series with Streptococcus mutans (setting [7]) was “does not bring about a formation of zones of inhibition; also recorded: zones of inhibition do not form” throughout. For the same molecule, the “Influence on the through-curing depth” value in series [1] is “dramatically reduced”.

Consider `CCCCCCCCNc1cc[n+](CCCCCCCCCC[n+]2ccc(NCCCCCCCC)cc2)cc1` [Ia], for which the “Influence on the chemical hardening of Systemp.link” value in series [2] is reported as “does not have a significant negative influence”. Also, in series [3], the “Influence on the hardening of Fermit” value is reported as “does not have a significant negative influence”. In the series on Streptococcus mutans (setting [7]), the “Formation of zones of inhibition” value is recorded as “clear zones of inhibition”. Further, the “Influence on the hardening of Systemp.link” value in series [4] is reported as “does not have a significant negative influence”. The “Hardening after exposure to light” value in series [5] was “hardened completely”. Besides, in series [1], the “Influence on the through-curing depth” value is recorded as “does not have a significant negative influence”. Also, the “Influence on the hardening of Systemp.cem” value in series [6] is given as “does not have a significant negative influence”.
